In PubChem BioAssay (NCI) one finds TGI and GI50 data, which are given here for twelve molecules.

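Five compound concentrations were applied to cells in 96-well plates for 48 hours; endpoints were derived by simple linear interpolation of the resulting dose-response curve. GI50 is the concentration that inhibits growth by half. TGI denotes the concentration required for complete inhibition of growth.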

Test systems include NCI-H226 lung; DMS 273 small cell lung; SF-539 CNS; LOX IMVI melanoma; RXF 393 renal; NCI-H23 lung; MALME-3M melanoma; SW-620 colon; HOP-62 NSCLC; HCT-116 colon.
Holding throughout (test): inhibition of tumour cell growth, NCI panel, 48 h

In the case of `COc1ccc(C(=O)Nc2ccccc2)cc1[N+](=O)[O-]`, the TGI in the assay on NCI-H226 lung, in the assay on DMS 273 small cell lung, with SF-539 CNS, in the assay with LOX IMVI melanoma, in the assay with RXF 393 renal and in the assay on NCI-H23 lung was above 100 µM each time. The TGI in the assay on MALME-3M melanoma, in the assay with SW-620 colon and in the assay with HOP-62 NSCLC was above 100 µM throughout.
For `Cn1c(=O)c2c(nc3n2C(CCl)CO3)n(C)c1=O` (centres undefined), the TGI with NCI-H226 lung, in the assay with DMS 273 small cell lung, in the assay on SF-539 CNS, in the assay with HCT-116 colon, with NCI-H23 lung and with MALME-3M melanoma was above 100 µM throughout. Further, the TGI in the assay on SW-620 colon and in the assay with HOP-62 NSCLC was above 100 µM throughout.
Take `Nc1ncn([C@@H]2C=C(CO)C(O)C2O)c(=O)n1` (some centres undefined): the TGI in the assay with NCI-H226 lung, with DMS 273 small cell lung, in the assay on SF-539 CNS, in the assay on HCT-116 colon, in the assay with LOX IMVI melanoma and in the assay with NCI-H23 lung was above 100 µM each time. Further, the TGI in the assay with MALME-3M melanoma, in the assay on SW-620 colon and with HOP-62 NSCLC was above 100 µM throughout.
For `O=C1/C(=C/c2ccccc2Cl)COc2ccccc21`, the TGI in the assay on DMS 273 small cell lung came to 31.6 µM; with SF-539 CNS, 31 µM; in the assay with HCT-116 colon it was 17 µM; in the assay with LOX IMVI melanoma it was 35.8 µM; in the assay with RXF 393 renal it was 28.9 µM; with NCI-H23 lung, 36 µM. The figures for the TGI with MALME-3M melanoma, in the assay on SW-620 colon and with HOP-62 NSCLC were 29.7 µM, 20.8 µM and 35 µM, respectively.
For the molecule `Cc1ccc(C)c(NC(=O)CCC(=O)CC(=O)C(C)(C)C)c1`, the TGI in the assay on DMS 273 small cell lung, in the assay on SF-539 CNS, with HCT-116 colon, in the assay with LOX IMVI melanoma, in the assay on RXF 393 renal and in the assay with NCI-H23 lung was above 100 µM in each case. Moreover, the TGI with MALME-3M melanoma, in the assay on SW-620 colon and with HOP-62 NSCLC was above 100 µM each time.
Regarding `COC(=O)C1(c2ccc(OC)cc2)NC(c2ccccc2)C2C(=O)N(c3ccc(OC)cc3)C(=O)C21` (centres undefined), the TGI in the assay with DMS 273 small cell lung, in the assay on SF-539 CNS, with LOX IMVI melanoma, in the assay with RXF 393 renal, with NCI-H23 lung and with MALME-3M melanoma was above 100 µM each time. This molecule returned a TGI in the assay with SW-620 colon above 100 µM.
Turning to `COc1ccc(Br)c(CCCCC(=O)O)c1`, the TGI in the assay with DMS 273 small cell lung, in the assay with SF-539 CNS, with HCT-116 colon, in the assay with LOX IMVI melanoma, in the assay with RXF 393 renal and in the assay on NCI-H23 lung was above 100 µM each time. The TGI in the assay with SW-620 colon and in the assay with HOP-62 NSCLC was above 100 µM throughout.
With `COC(=O)[C@@]12C3=NO[C@]1(C(=O)OC)C(O[Si](C)(C)C(C)(C)C)C1OC(C)(C)OC1[C@@H]2[C@@H](OCc1ccccc1)CC3` (some centres undefined), the TGI with NCI-H226 lung, in the assay with DMS 273 small cell lung, in the assay on SF-539 CNS, in the assay with HCT-116 colon, with LOX IMVI melanoma and in the assay with NCI-H23 lung was above 100 µM throughout. In the assay with SW-620 colon, this molecule returned a TGI above 100 µM.
In the case of `Cc1ccc(S(=O)(=O)OC(C=O)C(O)C(O)COC(c2ccccc2)(c2ccccc2)c2ccccc2)cc1` (centres undefined), the TGI in the assay with NCI-H226 lung turned out to be 29.4 µM; with DMS 273 small cell lung it was 37.9 µM; in the assay on SF-539 CNS, 30.8 µM; with HCT-116 colon, 30.5 µM; with LOX IMVI melanoma it was 35.2 µM; in the assay with RXF 393 renal, 30.3 µM. The TGI is 33.7 µM with MALME-3M melanoma, 35.2 µM in the assay on SW-620 colon and 30.8 µM in the assay with HOP-62 NSCLC.
Turning to `c1ccc(CNc2nc(Nc3ccc(-c4nc5ccccc5[nH]4)cc3)c3cn[nH]c3n2)cc1`, the GI50 is 2.98 µM with NCI-H226 lung; 2 µM in the assay with SF-539 CNS; 1.74 µM in the assay with HCT-116 colon; 1.69 µM in the assay with LOX IMVI melanoma; 1.57 µM in the assay with RXF 393 renal; 2.28 µM with NCI-H23 lung. Besides, the GI50 in the assay with MALME-3M melanoma is 1.81 µM; with SW-620 colon, 2.69 µM; with HOP-62 NSCLC, 2.17 µM. Besides, the TGI in the assay on NCI-H226 lung worked out at 8.43 µM; in the assay with SF-539 CNS it was 5.19 µM; in the assay on HCT-116 colon, 3.64 µM; with LOX IMVI melanoma it was 3.36 µM; in the assay on RXF 393 renal, 3.65 µM; in the assay with NCI-H23 lung, 6.13 µM. The values for the TGI in the assay with MALME-3M melanoma, in the assay on SW-620 colon and in the assay on HOP-62 NSCLC were 3.8 µM, 6.62 µM and 5.48 µM, respectively.
On to `COc1cc(-c2cn(-c3ccc(Cl)cc3)c(=O)n2-c2ccccc2)cc(OC)c1OC`, for which the GI50 is 82.1 µM in the assay on NCI-H226 lung; 61.5 µM in the assay with SF-539 CNS; 45.8 µM in the assay with HCT-116 colon; 46.2 µM with LOX IMVI melanoma; 25.4 µM with RXF 393 renal; above 100 µM in the assay with NCI-H23 lung. The GI50 is above 49.8 µM with MALME-3M melanoma, above 100 µM with SW-620 colon and above 85.3 µM in the assay on HOP-62 NSCLC. The TGI in the assay with NCI-H226 lung is above 100 µM; with SF-539 CNS, above 100 µM; in the assay with HCT-116 colon, above 100 µM; in the assay with LOX IMVI melanoma it was above 100 µM; in the assay with RXF 393 renal, above 81.9 µM; with NCI-H23 lung, above 100 µM. Besides, the TGI was above 94.9 µM in the assay with MALME-3M melanoma, above 100 µM with SW-620 colon and above 100 µM in the assay on HOP-62 NSCLC.
Take `CCN(CC)c1ccc(/C=C/C2=[N+](C)c3ccccc3C2(C)C)cc1`: the GI50 in the assay with NCI-H226 lung was 0.992 µM; in the assay with SF-539 CNS, 0.776 µM; with HCT-116 colon, 0.181 µM; in the assay with LOX IMVI melanoma, 0.251 µM; in the assay with RXF 393 renal it was 0.75 µM; in the assay on NCI-H23 lung, 0.181 µM. The GI50 is 0.29 µM in the assay on MALME-3M melanoma, 0.36 µM in the assay on SW-620 colon and 0.697 µM with HOP-62 NSCLC. The TGI amounted to 18.7 µM with NCI-H226 lung; 13.9 µM with SF-539 CNS; 22.1 µM in the assay on HCT-116 colon; 23 µM in the assay on LOX IMVI melanoma; 16.5 µM with RXF 393 renal; 25.8 µM in the assay with NCI-H23 lung. The values for the TGI in the assay on MALME-3M melanoma, in the assay on SW-620 colon and in the assay on HOP-62 NSCLC were 3.29 µM, 19.4 µM and 16.3 µM, respectively.
